Drawing on the supplement of paper PMC12137928, this text covers IC50 cell viability for 25 compounds.

In the assay the test system is HCT116. The following applies: 72 h. The gist of the method: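 Each well of the 1536-well plates received 250 HCT116 cells, which attached over 5 h. Luminescence was measured with CellTiter-Glo, scaled with vehicle as 0% and positive control as -100%, and pattern-corrected. A four-parameter Hill fit yielded IC50 and maximal efficacy.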

Structures can show the parent of a compound that is named as a salt.

For `CC(C)NC(=N)NC(=N)Nc1ccc(Cl)cc1` [Proguanil hydrochloride], the IC50 cell viability is more than 45.8 µM (ICRF193 0 nM) and more than 45.8 µM (ICRF193 200 nM).
For `CCCNCC(O)COc1ccccc1C(=O)CCc1ccccc1` (stereo not given) [Propafenone hydrochloride], the IC50 cell viability (ICRF193 0 nM) is more than 45.8 µM and the IC50 cell viability (ICRF193 200 nM) is more than 45.8 µM.
For `N=C(N)c1ccc(OCCCOc2ccc(C(=N)N)cc2)cc1` [Propamidine], the IC50 cell viability runs as follows: (ICRF193 0 nM) more than 45.8 µM; (ICRF193 200 nM) more than 45.8 µM.
As for `CC(C)[N+](C)(CCOC(=O)C1c2ccccc2Oc2ccccc21)C(C)C` [Propantheline bromide], the IC50 cell viability reads like this: (ICRF193 0 nM) more than 45.8 µM; (ICRF193 200 nM) more than 45.8 µM.
With `CCCOc1ccc(C(=O)OCCN(CC)CC)cc1N` [Proparacaine], the IC50 cell viability by setting is: (ICRF193 0 nM) more than 45.8 µM; (ICRF193 200 nM) more than 45.8 µM.
Regarding `CCCn1cnc2c1c(=O)n(CCCCC(C)=O)c(=O)n2C` [Propentofylline], the IC50 cell viability was more than 45.8 µM (ICRF193 0 nM) and more than 45.8 µM (ICRF193 200 nM).
On to `CCC(Oc1ccccc1)C(=O)N[C@@H]1C(=O)N2[C@@H]1SC(C)(C)[C@@H]2C(=O)O` (stereo not given in full) [Propicillin], for which the IC50 cell viability is more than 45.8 µM (ICRF193 0 nM) and more than 45.8 µM (ICRF193 200 nM).
As for `CC(C)c1cccc(C(C)C)c1O` [Propofol], the IC50 cell viability was more than 45.8 µM (ICRF193 0 nM) and more than 45.8 µM (ICRF193 200 nM).
In the case of `CCCOC(=O)c1ccccc1` [Propyl benzoate], the IC50 cell viability is more than 45.8 µM (ICRF193 0 nM) and more than 45.8 µM (ICRF193 200 nM).
In turn, `CCCOC(=O)c1ccc(O)cc1` [Propyl-4-hydroxybenzoate] returned an IC50 cell viability (ICRF193 0 nM) of more than 45.8 µM and an IC50 cell viability (ICRF193 200 nM) of more than 45.8 µM.
Regarding `CNC(C)CC1CCCCC1` (stereo not given) [Propylhexedrine (hydrochloride)], the IC50 cell viability reads like this: (ICRF193 0 nM) more than 45.8 µM; (ICRF193 200 nM) more than 45.8 µM.
With `CCCc1cc(=O)[nH]c(=S)[nH]1` [Propylthiouracil], the IC50 cell viability was more than 45.8 µM (ICRF193 0 nM) and more than 45.8 µM (ICRF193 200 nM).
On to `Cc1c(C(C)C)c(=O)n(-c2ccccc2)n1C` [Propyphenazone], for which the IC50 cell viability reads like this: (ICRF193 0 nM) more than 45.8 µM; (ICRF193 200 nM) more than 45.8 µM.
Compound `CCCc1cc(C(N)=S)ccn1` [Protionamide] registered an IC50 cell viability (ICRF193 0 nM) of more than 45.8 µM and an IC50 cell viability (ICRF193 200 nM) of more than 45.8 µM.
As for `CCC(c1ccccc1)c1noc(CCN(CC)CC)n1` (stereo not given) [Proxazole citrate], the IC50 cell viability (ICRF193 0 nM) is more than 45.8 µM and the IC50 cell viability (ICRF193 200 nM) was more than 45.8 µM.
As for `CC(O)Cn1cnc2c1c(=O)n(C)c(=O)n2C` (stereo not given) [Proxyphylline], the IC50 cell viability is more than 45.8 µM (ICRF193 0 nM) and more than 45.8 µM (ICRF193 200 nM).
As to `COCCCN1CCC(NC(=O)c2cc(Cl)c(N)c3c2OCC3)CC1` [Prucalopride], the IC50 cell viability is, setting by setting: (ICRF193 0 nM) more than 45.8 µM; (ICRF193 200 nM) more than 45.8 µM.
In the case of `Cc1oc(=O)oc1CN1CCN(c2cc3c(cc2F)c(=O)c(C(=O)O)c2n3C(C)S2)CC1` (stereo not given) [Prulifloxacin], the IC50 cell viability was more than 45.8 µM (ICRF193 0 nM) and more than 45.8 µM (ICRF193 200 nM).
Take `CN1CCCN=C1/C=C/c1cccs1` [Pyrantel tartrate]: the IC50 cell viability runs as follows: (ICRF193 0 nM) more than 45.8 µM; (ICRF193 200 nM) more than 45.8 µM.
Turning to `NC(=O)c1cnccn1` [Pyrazinamide], the IC50 cell viability is, setting by setting: (ICRF193 0 nM) more than 45.8 µM; (ICRF193 200 nM) more than 45.8 µM.
In the case of `C=CC=CCC1=C(C)C(OC(=O)C2C(C=C(C)C)C2(C)C)CC1=O` (stereo not given) [Pyrethrin 1], the IC50 cell viability reads like this: (ICRF193 0 nM) more than 45.8 µM; (ICRF193 200 nM) more than 45.8 µM.
Consider `CNC(=O)OCc1cccc(COC(=O)NC)n1` [Pyricarbate], for which the IC50 cell viability by setting is: (ICRF193 0 nM) more than 45.8 µM; (ICRF193 200 nM) more than 45.8 µM.
Compound `CN(C)C(=O)Oc1ccc[n+](C)c1` [Pyridostigmine bromide] returned an IC50 cell viability (ICRF193 0 nM) of more than 45.8 µM and an IC50 cell viability (ICRF193 200 nM) of more than 45.8 µM.
On to `Cc1ncc(COP(=O)(O)O)c(C=O)c1O` [Pyridoxal phosphate hydrate], for which the IC50 cell viability is more than 45.8 µM (ICRF193 0 nM) and more than 45.8 µM (ICRF193 200 nM).
Turning to `Cc1ncc(COP(=O)(O)O)c(CN)c1O` [Pyridoxamine phosphate], the IC50 cell viability (ICRF193 0 nM) is more than 45.8 µM and the IC50 cell viability (ICRF193 200 nM) is more than 45.8 µM.
